Read-outs that look alike come from different tables or passages of the source.
What was measured:
EZH2 (Y641N) = EZH2 (Y641N) (Homo sapiens (Human), UniProt Q15910, Y641N); assay: Test on EZH2 (Y641N) inhibitory activity; type: biochemical
Experimental: (§1) Compounds at different concentrations were dissolved in 100% DMSO and transferred to test plates, and the final concentration of DMSO was 1%. Enzyme solution and substrate SAM solution were prepared with 1-fold reaction buffer (optimized Tris buffer). 5 uL of enzyme solution was added to the test plate and wells only added with 5 uL of reaction buffer were used as negative control wells. After incubation at room temperature for 15 min, the plate was added with 5 uL of substrate solution per well to initiate the reaction, and then incubated at room temperature for 60 min. 5 uL of receptor solution was added and the plate was incubated away from light at room temperature for 60 min. 10 uL of donor solution was added and the plate was incubated away from light at room temperature for 30 min. The endpoint values were read on the Envision and the IC50 was calculated.
(§2) Data were fitted by GraphPad Prism 5 software and inhibition rate was calculated according to equation (1) Inh %=(Max−Signal)/(Max−Min)×100 (1)
(§3) IC50 was calculated using equation (2) Y=Bottom+(Top−Bottom)/(1+10^((Log IC50−X)×Hill Slope))
(§4) Y: inhibition rate; X: concentration of the compound

EZH2 (Y641F) = EZH2 (Y641F) (Homo sapiens (Human), UniProt Q15910, Y641F); assay: Test on EZH2 (Y641F) inhibitory activity; type: biochemical
Experimental: as §1, §2, §3, §4

EZH2 (wt) = EZH2 (wt) (Homo sapiens (Human), UniProt Q15910); assay: Test on EZH2 (wt) inhibitory activity ([3H]-SAM Flashplate); type: biochemical
Experimental: Protocols Compounds at different concentrations were dissolved in 100% DMSO and transferred to test plates, and the final concentration of DMSO was 1%. The enzyme solution and the mixture solution of peptide and [3H]-SAM were prepared with 1-fold reaction buffer. 10 uL of enzyme solution was added to the test plate and wells only added with 10 uL of reaction buffer were used as negative control wells. After incubation at room temperature for 15 min, the plate was added with 10 uL of the mixture solution of peptide and [3H]-SAM per well to initiate the reaction which lasts for 60 min at room temperature. The pre-cooled SAM was added to 1-fold reaction buffer to prepare a stop buffer. The reaction was stopped by adding 10 uL of stop buffer per well. 25 uL of solution was transferred from the reaction plate to Flashplate and incubated at room temperature for at least 1 h. The Flashplate was washed 3 times with dH2O+0.1% Tween-20. The plate was read by Microbeta.
as §2, §3, §4

[1] = In vivo pharmacokinetic properties in mice; design: species or system mouse; Cmax: unit: ng/mL; conditions: male ICR mice; for F: intragastric 250 mg/kg vs intravenous 5 mg/kg
Experimental: Male ICR mice were divided into different groups with 3 mice in each group, and single intravenous injection and single intragastric administration were conducted respectively. The compounds were formulated with 10% DMSO/90% (20% Captisol) to reach an appropriate concentration and then administered intravenously at 5 mg/kg. The compounds were formulated with 0.5% CMC-Na/0.1% Tween 80 (pH=3-4) to reach an appropriate concentration and then administered intragastrically at 250 mg/kg. Blood was taken at 5 min, 15 min, 30 min, 1 h, 2 h, 4 h, 6 h, 8 h and 24 h after administration, and then subjected to EDTA-K2 anticoagulation. The concentration of the compound in the plasma was quantitatively detected by an LC-MS/MS method.

WSU-DLCL2 cells = assay: Experiment on WSU-DLCL2 cell proliferation (Calcein-AM); type: cell-based
Experimental: WSU-DLCL2 cells were plated in a 96-well plate and 100 uL of cells (a density of 1×10^5 cells/mL) and 50 uL of compound stock at 3-fold concentration was added to each well, and the final volume was 150 uL/well. After 6 days of culturing, on day 7, the cells in the well plate were mixed well by pipetting, and 50 uL of the cell suspension was pipetted to be tested for cell viability using Calcein-AM. 50 uL of the cell suspension was added to a 96-well plate coated by poly-D-Lysine, and then 50 uL of HBSS containing 2 uM Calcein-AM was added to make the final concentration of Calcein-AM 1 uM. After incubation for 10 min at room temperature, the cells were rapidly centrifuged to be deposited on the bottom of the plate. The cells were cultured in the incubator for another 40 min and then the plate was read on Acumen.
The remaining cells were diluted and then plated in a 96-well plate, and 100 uL of cells and 50 uL of a compound at 3-fold concentration were added to each well for further culturing until day 14, and the cell viability was detected as described above. The IC50 was calculated.

Pfeiffer cells = assay: Experiment on Pfeiffer cell proliferation (CellTiter-Glo); type: cell-based, human
Experimental: 90 uL of cells were added to each well of a 96-well plate at 12000 cells/well, and cell-free culture medium was added to blank control wells. The plate was incubated overnight in an incubator at 37° C., 5% CO2 and 100% relative humidity. The compounds were diluted from highest to lowest concentration gradient with DMSO to make stock solutions at 400-fold and 10-fold concentration. 10 μL of 10× compound working solution was added to the cell culture plate, and the total concentration of the compound was detected from 10 μM, 9 concentration points in total, and 3-fold serial dilution was performed. 10 μL of DMSO-cell culture medium mixture solution was added to the vehicle control wells and blank control wells. The final concentration of DMSO was 0.25%. The plate was put back in the incubator for another 7 days of culturing.
The cell culture plate cultured for 7 days was taken out of the incubator, and the suspended cells in the 96-well plate were mixed well by pipetting multiple times. 74 uL of fresh cell culture medium was added to a new 96-well plate, and 16 uL of cell suspension was pipetted from the 96-well plate with cells mixed well by pipetting into the new 96-well plate to bring the total volume to 90 uL. Cells in the new 96-well plate were treated with the compound. The new 96-well plate was put back in the incubator for another 7 days of culturing, and then cell viability was detected directly.
84 μL of cell suspension was taken from the cell culture plate for cell viability detection.
CellTiter-Glo buffer and substrate were thawed and balanced to room temperature. The CellTiter-Glo buffer was added to a bottle of CellTiter-Glo substrate to dissolve the substrate, thereby preparing CellTiter-Glo working solution. The bottle was subjected to slow vortex shaking to completely dissolve the substrate. The cell culture plate was taken out and balanced to room temperature for 30 min. 50 μL of CellTiter-Glo working solution was added to each well. The cell plate was wrapped with aluminum foil to keep out of light. The plate was shaken on an orbital shaker for 2 min to induce cell lysis. The plate was placed at room temperature for 10 min to stabilize the luminescence signals. The luminescence signals were detected on 2104 En Vision plate reader.
Inhibition rates of compounds at different concentrations were calculated in Excel, followed by plotting the inhibition curves and calculating relevant parameters including minimum (%), maximum (%), and absolute IC50 using GraphPad Prism software.

[2] = tested on: subcutaneous xenograft tumor model of human B lymphocyte Pfeiffer; assay: In vivo efficacy in subcutaneous xenograft tumor model of human B lymphocyte Pfeiffer; design: species or system mouse; conditions: SCID Beige mice, tumor volume 21 days after administration
Experimental: Human B lymphocyte strain Pfeiffer was cultured in vitro, in a monolayer way, in a RPMI-1640 medium containing 10% fetal bovine serum, 100 U/mL penicillin and 100 μg/mL streptomycin in an incubator at 37° C./5% CO2. Conventional medium refreshment and subculturing were carried out twice a week, and cells in logarithmic growth phase were collected and used for tumor inoculation after being counted.
Female SCID Beige mice, aged 6-8 weeks and weighed 18-22 g were used in the experiment. The experiment started after 7-day adaptive feed.
Each mouse was inoculated subcutaneously with 10×10^6 Pfeiffer cells in a volume of 0.2 mL in the right side of the neck. The cells were suspended with PBS and matrigel (volume ratio 1:1). After the average tumor volume reached 130 mm^3, the mice were divided into groups with 8 mice per group for administration. The administration volume was 10 uL/g and the dose was 100 mg/kg if there's no special labeling ((p.o. administration, QD, continuous administration for 21 days).
Animal body weights were measured twice weekly and animal mortality and side effects within each group were recorded based on the number of animals in the group.
The experimental indices were to investigate whether tumor growth was inhibited or delayed or the tumor was cured. Tumor diameters were measured twice weekly using a vernier caliper. The tumor volume was calculated according to the following formula: V=0.5 a×b^2, where a and b represent the long diameter and short diameter of the tumor, respectively. The tumor growth inhibitions (TGIs) of the compounds were evaluated by T/C (%). The percentage value of T/C (%) is an index for reflecting the tumor growth inhibition, where T and C represent the average tumor volume of the administration group and the control group, respectively, at a certain day.
The tumor growth inhibition rate was calculated according to the following formula: TGI (%)=(1−(Ti−T0)/(Vi−V0))×100, where Ti is the average tumor volume of a certain administration group on a certain day, T0 is the average tumor volume of the administration group at the start of administration, Vi is the average tumor volume of the vehicle control group on a certain day (same day as Ti) and V0 is the average tumor volume of the vehicle control group at the start of administration.
Relative tumor volumes at each time point for each group were statistically analyzed and differences among groups were assessed based on the data. The statistical method used for testing was one-way ANOVA.

[3] = single intravenous 5 mg/kg and intragastric 250 mg/kg study
[4] = mouse, plasma, oral, single intravenous 5 mg/kg and intragastric 250 mg/kg study
[5] = mouse, plasma, oral, single intravenous 5 mg/kg and intragastric 250 mg/kg study, read-out: Cmax
[6] = mouse, plasma, oral, single intravenous 5 mg/kg and intragastric 250 mg/kg study, read-out: Tmax
[7] = mouse, plasma, single intravenous 5 mg/kg and intragastric 250 mg/kg study
[8] = Homo sapiens, WSUDLCL2, 168 h, WSU-DLCL2, Day 7, read-out: IC50 WSU-DLCL2 proliferation Day 7
[9] = Homo sapiens, WSUDLCL2, 336 h, WSU-DLCL2, Day 14, read-out: IC50 WSU-DLCL2 proliferation Day 14
[10] = Homo sapiens, 168 h, Day 7, read-out: IC50 Pfeiffer proliferation Day 7
[11] = Homo sapiens, 336 h, Day 14, read-out: IC50 Pfeiffer proliferation Day 14

EZH2 (Y641F), sequence (Q15910 whole entry Y641F): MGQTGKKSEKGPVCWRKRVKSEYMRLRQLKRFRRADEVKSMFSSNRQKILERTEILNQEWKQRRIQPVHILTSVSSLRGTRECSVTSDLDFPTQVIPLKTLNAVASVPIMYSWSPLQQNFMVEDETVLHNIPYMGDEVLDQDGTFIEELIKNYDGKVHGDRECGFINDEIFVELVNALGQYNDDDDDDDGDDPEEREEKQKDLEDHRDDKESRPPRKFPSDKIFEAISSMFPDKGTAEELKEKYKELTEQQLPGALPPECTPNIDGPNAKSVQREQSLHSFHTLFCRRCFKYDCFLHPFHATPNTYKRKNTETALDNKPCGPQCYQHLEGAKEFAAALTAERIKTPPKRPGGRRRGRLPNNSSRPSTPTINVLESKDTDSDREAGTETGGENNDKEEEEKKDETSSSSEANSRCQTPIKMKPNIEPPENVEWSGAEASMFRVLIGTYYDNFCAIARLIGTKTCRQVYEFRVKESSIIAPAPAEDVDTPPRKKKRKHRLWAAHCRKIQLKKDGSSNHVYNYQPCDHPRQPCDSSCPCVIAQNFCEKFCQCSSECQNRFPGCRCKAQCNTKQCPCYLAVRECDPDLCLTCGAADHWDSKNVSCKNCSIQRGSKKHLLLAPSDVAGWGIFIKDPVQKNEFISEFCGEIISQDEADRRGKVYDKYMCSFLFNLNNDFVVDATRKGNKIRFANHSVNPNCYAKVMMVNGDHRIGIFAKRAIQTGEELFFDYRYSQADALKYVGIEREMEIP
EZH2 (Y641F), sequence (O75530 whole entry partner): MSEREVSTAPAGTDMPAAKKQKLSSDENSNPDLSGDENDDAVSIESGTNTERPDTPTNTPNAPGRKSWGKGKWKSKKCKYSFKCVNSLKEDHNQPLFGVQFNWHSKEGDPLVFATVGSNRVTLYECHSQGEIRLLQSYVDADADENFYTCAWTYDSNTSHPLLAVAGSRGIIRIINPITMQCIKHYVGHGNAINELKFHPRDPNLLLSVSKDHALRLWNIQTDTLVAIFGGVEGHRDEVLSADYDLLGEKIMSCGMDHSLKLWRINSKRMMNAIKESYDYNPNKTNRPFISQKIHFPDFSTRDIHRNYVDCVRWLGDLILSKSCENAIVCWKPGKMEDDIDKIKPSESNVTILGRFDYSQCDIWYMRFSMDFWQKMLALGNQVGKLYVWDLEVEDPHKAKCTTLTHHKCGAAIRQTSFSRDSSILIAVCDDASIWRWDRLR
EZH2 (Y641F), sequence (Q15022 whole entry partner): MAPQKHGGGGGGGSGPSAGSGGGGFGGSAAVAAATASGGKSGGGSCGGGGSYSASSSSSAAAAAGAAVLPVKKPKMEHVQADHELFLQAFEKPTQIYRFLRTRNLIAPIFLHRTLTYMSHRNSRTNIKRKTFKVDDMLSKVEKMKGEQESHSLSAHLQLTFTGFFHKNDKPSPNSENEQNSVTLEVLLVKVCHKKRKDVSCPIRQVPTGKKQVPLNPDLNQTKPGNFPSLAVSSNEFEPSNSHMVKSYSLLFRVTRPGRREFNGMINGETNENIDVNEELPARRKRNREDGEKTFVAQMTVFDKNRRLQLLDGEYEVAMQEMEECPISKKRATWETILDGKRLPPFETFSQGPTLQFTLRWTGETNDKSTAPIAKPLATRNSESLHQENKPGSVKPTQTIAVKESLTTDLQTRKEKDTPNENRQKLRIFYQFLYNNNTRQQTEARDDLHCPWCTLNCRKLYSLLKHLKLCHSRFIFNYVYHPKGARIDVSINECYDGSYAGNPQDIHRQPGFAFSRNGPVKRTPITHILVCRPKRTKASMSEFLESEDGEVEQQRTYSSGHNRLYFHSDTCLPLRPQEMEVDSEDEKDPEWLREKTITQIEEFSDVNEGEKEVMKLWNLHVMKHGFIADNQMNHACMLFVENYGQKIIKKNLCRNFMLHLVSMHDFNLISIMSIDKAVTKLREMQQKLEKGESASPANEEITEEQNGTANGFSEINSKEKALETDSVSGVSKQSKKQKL
EZH2 (Y641N), sequence (Q15910 whole entry Y641N): as the sequence (Q15910 whole entry Y641F) above, with F641N counted along it
EZH2 (Y641N), sequence (O75530 whole entry partner): as the sequence (O75530 whole entry partner) above
EZH2 (Y641N), sequence (Q15022 whole entry partner): as the sequence (Q15022 whole entry partner) above
EZH2 (wt), sequence (Q15910 whole entry): as the sequence (Q15910 whole entry Y641F) above, with F641Y counted along it
EZH2 (wt), sequence (O75530 whole entry partner): as the sequence (O75530 whole entry partner) above
EZH2 (wt), sequence (Q15022 whole entry partner): as the sequence (Q15022 whole entry partner) above

Compound	IC50 (EZH2 (Y641N)) [µM]	IC50 (EZH2 (Y641F)) [µM]	IC50 (EZH2 (wt)) [µM]	F [1] [%]	CL [1, 3] [mL/min/lg]	AUC(0-inf) [1, 4] [µg·h/mL]	Cmax [1, 5] [µg/mL]	Tmax [1, 6] [h]	half-life [1, 7] [h]	also measured
CCN(c1cc(O[C@H]2C[C@H](N3CCCCC3)C2)cc(C(=O)NCc2c(OC)cc(C)[nH]c2=O)c1C)C1CCOCC1 [Example 93, 3-(ethyl(tetrahydro-2H-pyran-4-yl)amino)-N-((4-methoxy-6-methyl-2-oxo-1,2-dihydropyridin-3-yl)methyl)-2-methyl-5-(trans-3-(piperidin-1-yl)cyclobutoxy)benzamide]	< 0.00051	< 0.00051	< 0.00051	23.1	45.17 ± 4.21	21.5 ± 2.11	10.7 ± 4.12	0.33 ± 0.14	1.3 ± 0.64	–
CCN(c1cc(O[C@H]2C[C@H](N3CCCCC3)C2)cc(C(=O)NCc2c(OC)cc(C)[nH]c2=O)c1C)C1CCC(F)(F)CC1 [Example 91, 3-((4,4-difluorocyclohexyl)(ethyl)amino)-N-((4-methoxy-6-methyl-2-oxo-1,2-dihydropyridin-3-yl)methyl)-2-methyl-5-(trans-3-(piperidin-1-yl)cyclobutoxy)benzamide]	–	–	–	82.3	66.9 ± 3.70	51.6	9.35 ± 1.9	1.67 ± 0.58	7.72 ± 3.14	IC50 (WSU-DLCL2 cells; [8]): 0.024 µM; IC50 (WSU-DLCL2 cells; [9]): 0.006 µM; IC50 (Pfeiffer cells; [10]): 0.006 µM; IC50 (Pfeiffer cells; [11]): 0.002 µM; TGI ([2]; 50 mg/kg p.o. QD 21 days): 89.39%
CCN(c1cc(OC2CN(C)C2)cc(C(=O)NCc2c(C)cc(C)[nH]c2=O)c1C)C1CCC(N(C)C)CC1 (stereo not shown) [EPZ349, reference compound]	–	–	–	12.8	149 ± 57.0	–	–	–	–	IC50 (WSU-DLCL2 cells; WSU-DLCL2, Day 7, read-out: IC50 WSU-DLCL2 proliferation Day 7): 0.563 µM; IC50 (WSU-DLCL2 cells; WSU-DLCL2, Day 14, read-out: IC50 WSU-DLCL2 proliferation Day 14): 0.11 µM; IC50 (Pfeiffer cells; Day 7, read-out: IC50 Pfeiffer proliferation Day 7): 0.104 µM; IC50 (Pfeiffer cells; Day 14, read-out: IC50 Pfeiffer proliferation Day 14): 0.033 µM; AUC0-∞ [1, 3]: 3.918 ± 1.71 µg·h/mL; Cmax [1, 3]: 1.485 ± 0.86 µg/mL; T1/2 [1, 3]: 2.19 ± 1.32 h; Tmax [1, 3]: 0.83 ± 0.29 h; TGI ([2]; 100 mg/kg p.o. QD 21 days): 22.39%
CCN(c1cc(O[C@H]2C[C@H](N3CCCCC3)C2)cc(C(=O)NCc2c(O)cc(C)[nH]c2=O)c1C)C1CCC(F)(F)CC1 [Example 94, 3-((4,4-difluorocyclohexyl)(ethyl)amino)-N-((4-hydroxy-6-methyl-2-oxo-1,2-dihydropyridin-3-yl)methyl)-2-methyl-5-(trans-3-(piperidin-1-yl)cyclobutoxy)benzamide]	0.1	0.123	0.145	–	–	–	–	–	–	–
CCN(c1cc(O[C@H]2C[C@H](N3C[C@@H](C)O[C@@H](C)C3)C2)cc(C(=O)NCc2c(OC)cc(C)[nH]c2=O)c1C)C1CC2CCC(C1)O2 (stereo partly drawn) [Example 88, 3-((8-oxabicyclo[3.2.1]octan-3-yl)(ethyl)amino)-5-(trans-3-(cis-2,6-dimethylmorpholinyl)cyclobutoxy)-N-((4-methoxy-6-methyl-2-oxo-1,2-dihydropyridin-3-yl)methyl)-2-methylbenzamide]	0.002	0.0033	0.0011	33.4	60.4 ± 0.15	23 ± 4.54	10.2 ± 1.45	0.5	2.26 ± 0.87	TGI ([2]; 100 mg/kg p.o. QD 21 days): 32.83%
CCN(c1cc(O[C@H]2C[C@H](N3CCCCC3)C2)cc(C(=O)NCc2c(C)cc(C)[nH]c2=O)c1C)C1CCC(F)(F)CC1 [Example 68, 3-((4,4-difluorocyclohexyl)(ethyl)amino)-N-((4,6-dimethyl-2-oxo-1,2-dihydropyridin-3-yl)methyl)-2-methyl-5-(trans-3-(piperidin-1-yl)cyclobutoxy)benzamide]	–	–	–	56.5	27.1 ± 5.94	89.5	9.25 ± 0.181	1.33 ± 0.58	10.4 ± 8.53	IC50 (WSU-DLCL2 cells; [8]): 0.049 µM; IC50 (WSU-DLCL2 cells; [9]): 0.012 µM; IC50 (Pfeiffer cells; [10]): 0.013 µM; IC50 (Pfeiffer cells; [11]): 0.0046 µM; TGI ([2]; 50 mg/kg p.o. QD 21 days): 94.28%
CCN(c1cc(O[C@H]2C[C@H](N3CCCCC3)C2)cc(C(=O)NCc2c(C)cc(C)[nH]c2=O)c1C)C1CCOCC1 [Example 92]	< 0.00051	< 0.00051	0.00052	48.6	80.84 ± 5.78	25.2 ± 4.54	9.44 ± 1	0.58 ± 0.38	2.03 ± 1.14	–
